Experimental data taken from ChEMBL document CHEMBL3044843, “Synthesis of 1,2,3-triazole tethered bifunctional hybrids by click chemistry and their cytotoxic studies” (2013).
Counter-ions that a name gives are not always drawn.

Columns and labels:
Type in all cases: functional
Conditions in all cases: read-out: GI
COLO 205 [1] = assay: Growth inhibition of Homo sapiens (human) COLO205 cells at 100 uM by SRB assay
THP-1 [2] = assay: Growth inhibition of Homo sapiens (human) THP1 cells at 100 uM by SRB assay
THP-1 [3] = assay: Growth inhibition of Homo sapiens (human) THP1 cells at 10 uM by SRB assay
A549 [4] = assay: Growth inhibition of Homo sapiens (human) A549 cells at 10 uM by SRB assay
A549 [5] = assay: Growth inhibition of Homo sapiens (human) A549 cells at 100 uM by SRB assay
COLO 205 [6] = assay: Growth inhibition of Homo sapiens (human) COLO205 cells at 10 uM by SRB assay
COLO 205 [7] = assay: Growth inhibition of Homo sapiens (human) COLO205 cells at 1 uM by SRB assay

SMILES: COc1cc(C2CC(c3ccc(OCc4cn(Cc5ccc([N+](=O)[O-])cc5)nn4)cc3)=NN2C(C)=O)ccc1OCc1cn(Cc2ccc([N+](=O)[O-])cc2)nn1 (stereo not given)
- inhibition of growth at 100 µM (COLO 205 [1]): 51%
- inhibition of growth at 100 µM (THP-1 [2]): 15%
- inhibition of growth at 10 µM (THP-1 [3]): 0%
- inhibition of growth at 10 µM (A549 [4]): 29%
- inhibition of growth at 100 µM (A549 [5]): 42%
- inhibition of growth at 10 µM (COLO 205 [6]): 27%

SMILES: COc1ccc(C2=NN(C(C)=O)C(c3ccc(OCc4cn(Cc5ccc([N+](=O)[O-])cc5)nn4)c(OC)c3)C2)cc1 (stereo not given)
- inhibition of growth at 100 µM (COLO 205 [1]): 75%
- inhibition of growth at 100 µM (THP-1 [2]): 14%
- inhibition of growth at 10 µM (THP-1 [3]): 8%
- inhibition of growth at 10 µM (A549 [4]): 43%
- inhibition of growth at 100 µM (A549 [5]): 84%
- inhibition of growth at 10 µM (COLO 205 [6]): 10%

SMILES: COc1cccc2c1C(=O)c1c(O)c3c(c(O)c1C2=O)C[C@@](O)(C(=O)CO)C[C@@H]3O[C@H]1C[C@H](N)[C@H](O)[C@H](C)O1 [DOXORUBICIN HYDROCHLORIDE]
- inhibition of growth at 1 µM (COLO 205 [7]): 72%

SMILES: CC(=O)O[C@H]1C(=O)[C@@]2(C)[C@H]([C@H](OC(=O)c3ccccc3)[C@]3(O)C[C@H](OC(=O)[C@H](O)[C@@H](NC(=O)c4ccccc4)c4ccccc4)C(C)=C1C3(C)C)[C@]1(OC(C)=O)CO[C@@H]1C[C@@H]2O [PACLITAXEL]
- inhibition of growth at 10 µM (THP-1 [3]): 62%
- inhibition of growth at 10 µM (A549 [4]): 59%

SMILES: COc1cc(C2CC(c3ccc([N+](=O)[O-])cc3)=NN2C(C)=O)ccc1OCc1cn(Cc2ccc([N+](=O)[O-])cc2)nn1 (stereo not given)
- inhibition of growth at 100 µM (COLO 205 [1]): 85%
- inhibition of growth at 100 µM (THP-1 [2]): 59%
- inhibition of growth at 10 µM (THP-1 [3]): 7%
- inhibition of growth at 10 µM (A549 [4]): 39%
- inhibition of growth at 100 µM (A549 [5]): 72%
- inhibition of growth at 10 µM (COLO 205 [6]): 33%

SMILES: COc1ccc(C2CC(c3ccc(OCc4cn(Cc5ccc([N+](=O)[O-])cc5)nn4)cc3)=NN2C(C)=O)cc1 (stereo not given)
- inhibition of growth at 100 µM (COLO 205 [1]): 37%
- inhibition of growth at 100 µM (THP-1 [2]): 26%
- inhibition of growth at 10 µM (THP-1 [3]): 15%
- inhibition of growth at 10 µM (A549 [4]): 26%
- inhibition of growth at 100 µM (A549 [5]): 33%
- inhibition of growth at 10 µM (COLO 205 [6]): 4%

SMILES: CO[C@@]12[C@H](COC(N)=O)C3=C(C(=O)C(C)=C(N)C3=O)N1C[C@@H]1N[C@@H]12 [MITOMYCIN]
- inhibition of growth at 10 µM (THP-1 [3]): 65%

SMILES: COc1cc(C2CC(c3ccc(Cl)cc3)=NN2C(C)=O)ccc1OCc1cn(Cc2ccc([N+](=O)[O-])cc2)nn1 (stereo not given)
- inhibition of growth at 100 µM (COLO 205 [1]): 10%
- inhibition of growth at 100 µM (THP-1 [2]): 37%
- inhibition of growth at 10 µM (THP-1 [3]): 17%
- inhibition of growth at 10 µM (A549 [4]): 0%
- inhibition of growth at 100 µM (A549 [5]): 0%
- inhibition of growth at 10 µM (COLO 205 [6]): 0%

SMILES: COc1cc(C2CC(c3ccc(Br)cc3)=NN2C(C)=O)ccc1OCc1cn(Cc2ccc([N+](=O)[O-])cc2)nn1 (stereo not given)
- inhibition of growth at 100 µM (COLO 205 [1]): 47%
- inhibition of growth at 100 µM (THP-1 [2]): 23%
- inhibition of growth at 10 µM (THP-1 [3]): 1%
- inhibition of growth at 10 µM (A549 [4]): 0%
- inhibition of growth at 100 µM (A549 [5]): 17%
- inhibition of growth at 10 µM (COLO 205 [6]): 26%

SMILES: COc1ccc(C2CC(c3ccc(OCc4cn(Cc5ccc([N+](=O)[O-])cc5)nn4)cc3)=NN2C(C)=O)cc1OC (stereo not given)
- inhibition of growth at 100 µM (COLO 205 [1]): 38%
- inhibition of growth at 100 µM (THP-1 [2]): 9%
- inhibition of growth at 10 µM (THP-1 [3]): 8%
- inhibition of growth at 10 µM (A549 [4]): 11%
- inhibition of growth at 100 µM (A549 [5]): 36%
- inhibition of growth at 10 µM (COLO 205 [6]): 9%

SMILES: CC(=O)N1N=C(c2ccc(OCc3cn(Cc4ccc([N+](=O)[O-])cc4)nn3)cc2)CC1c1ccccc1 (stereo not given)
- inhibition of growth at 100 µM (COLO 205 [1]): 55%
- inhibition of growth at 100 µM (THP-1 [2]): 22%
- inhibition of growth at 10 µM (THP-1 [3]): 0%
- inhibition of growth at 10 µM (A549 [4]): 15%
- inhibition of growth at 100 µM (A549 [5]): 80%
- inhibition of growth at 10 µM (COLO 205 [6]): 18%

SMILES: COc1cc(C2CC(c3ccccc3)=NN2C(C)=O)ccc1OCc1cn(Cc2ccc([N+](=O)[O-])cc2)nn1 (stereo not given)
- inhibition of growth at 100 µM (COLO 205 [1]): 11%
- inhibition of growth at 100 µM (THP-1 [2]): 10%
- inhibition of growth at 10 µM (THP-1 [3]): 0%
- inhibition of growth at 10 µM (A549 [4]): 0%
- inhibition of growth at 100 µM (A549 [5]): 11%
- inhibition of growth at 10 µM (COLO 205 [6]): 7%

SMILES: COc1cc(C2CC(c3cc(OC)c(OC)c(OC)c3)=NN2C(C)=O)ccc1OCc1cn(Cc2ccc([N+](=O)[O-])cc2)nn1 (stereo not given)
- inhibition of growth at 100 µM (COLO 205 [1]): 99%
- inhibition of growth at 100 µM (THP-1 [2]): 43%
- inhibition of growth at 10 µM (THP-1 [3]): 29%
- inhibition of growth at 10 µM (A549 [4]): 68%
- inhibition of growth at 100 µM (A549 [5]): 85%
- inhibition of growth at 10 µM (COLO 205 [6]): 60%

SMILES: COc1cc(C2CC(c3cccc4ccccc34)=NN2C(C)=O)ccc1OCc1cn(Cc2ccc([N+](=O)[O-])cc2)nn1 (stereo not given)
- inhibition of growth at 100 µM (COLO 205 [1]): 72%
- inhibition of growth at 100 µM (THP-1 [2]): 79%
- inhibition of growth at 10 µM (THP-1 [3]): 10%
- inhibition of growth at 10 µM (A549 [4]): 89%
- inhibition of growth at 100 µM (A549 [5]): 95%
- inhibition of growth at 10 µM (COLO 205 [6]): 46%
